Reference: patent publication US10961236B2, “(S)-2-(1-cyclopropylethyl)-5-(4-methyl-2-((6-(2-oxopyrrolidin-1-yl)pyridin-2-yl)amino) thiazol-5-yl)-7-(methylsulfonyl)isoindolin-1-one as a phosphatidylinositol 3-kinase inhibitor” (AstraZeneca AB, priority 2016, dated 2021)

How the values were obtained:
Format in all cases: biochemical
[1] = target: recombinant human PI3Kα (6-His(p110-p85α)) (Homo sapiens (Human), UniProt P42336); experiment: Enzymatic activity assay for recombinant human PI3Kα (ADP-Glo); settings: 1.2 nM PI3Kα, 20 μM ATP, 80 μM DiC8-PIP2, ADP-Glo
Description: (§1) Enzymatic Activity Assay for Recombinant Human PI3K α, β, δ and γ.
(§2) The activity of recombinant human PI3Kγ ((aa144-1102)-6His) and PI3Kα, β, δ (6-His(p110-p85α)) was determined by measuring the ADP level after phosphorylation of DiC8-PIP2 using a commercially available ADP-Glo™ kit from Promega. The assay was carried out in white low volume 384 well plates in a final volume of 14 μl at R.T. The assay conditions contained the following: 50 mM Tris buffer pH 7.4, 2.1 mM DTT, 3 mM MgCl2, 0.05% CHAPS, 20 μM ATP, 80 μM DiC8-PIP2 and 1.2 nM PI3Kα, β, γ or 0.6 nM PI3Kδ. Potential inhibitors were made up in DMSO and then diluted in the assay to give a final concentration of not exceeding 1% (v/v) DMSO. […] Routinely, inhibitors were pre-incubated with 3 μl of enzyme for 15 min prior to the addition of 2 μl substrate mixture for a further 60 min enzyme reaction. The phosphorylation was stopped with the addition of 3 μl ADP-Glo™ reagent (stop solution) followed by a 40 min incubation. Prior to detection 6 μl of ADP-Glo™ Kinase Detection Reagent was added and the plates were read in a micro plate reader using a Luminescence filter. All additions were followed by a short centrifugation step.

[2] = target: recombinant human PI3Kγ ((aa144-1102)-6His) (Homo sapiens (Human), UniProt P48736); experiment: Enzymatic activity assay for recombinant human PI3Kγ (ADP-Glo); settings: 1.2 nM PI3Kγ, 20 μM ATP, 80 μM DiC8-PIP2, ADP-Glo
Description: as §1
as §2, with “PI3Kδ.” for “PI3Kδ. Potential inhibitors were made up in DMSO and then diluted in the assay to give a final concentration of not exceeding 1% (v/v) DMSO.”

[3] = target: recombinant human PI3Kβ (6-His(p110-p85α)) (Homo sapiens (Human), UniProt P42338); experiment: Enzymatic activity assay for recombinant human PI3Kβ (ADP-Glo); settings: 1.2 nM PI3Kβ, 20 μM ATP, 80 μM DiC8-PIP2, ADP-Glo
Description: as §1, §2

[4] = target: recombinant human PI3Kδ (6-His(p110-p85α)) (Homo sapiens (Human), UniProt O00329); experiment: Enzymatic activity assay for recombinant human PI3Kδ (ADP-Glo); settings: 0.6 nM PI3Kδ, 20 μM ATP, 80 μM DiC8-PIP2, ADP-Glo
Description: as §1
as §2, with “PI3Kδ.” for “PI3Kδ. Potential inhibitors were made up in DMSO and then diluted in the assay to give a final concentration of not exceeding 1% (v/v) DMSO.”

Chain of recombinant human PI3Kδ (6-His(p110-p85α)) (O00329 whole entry): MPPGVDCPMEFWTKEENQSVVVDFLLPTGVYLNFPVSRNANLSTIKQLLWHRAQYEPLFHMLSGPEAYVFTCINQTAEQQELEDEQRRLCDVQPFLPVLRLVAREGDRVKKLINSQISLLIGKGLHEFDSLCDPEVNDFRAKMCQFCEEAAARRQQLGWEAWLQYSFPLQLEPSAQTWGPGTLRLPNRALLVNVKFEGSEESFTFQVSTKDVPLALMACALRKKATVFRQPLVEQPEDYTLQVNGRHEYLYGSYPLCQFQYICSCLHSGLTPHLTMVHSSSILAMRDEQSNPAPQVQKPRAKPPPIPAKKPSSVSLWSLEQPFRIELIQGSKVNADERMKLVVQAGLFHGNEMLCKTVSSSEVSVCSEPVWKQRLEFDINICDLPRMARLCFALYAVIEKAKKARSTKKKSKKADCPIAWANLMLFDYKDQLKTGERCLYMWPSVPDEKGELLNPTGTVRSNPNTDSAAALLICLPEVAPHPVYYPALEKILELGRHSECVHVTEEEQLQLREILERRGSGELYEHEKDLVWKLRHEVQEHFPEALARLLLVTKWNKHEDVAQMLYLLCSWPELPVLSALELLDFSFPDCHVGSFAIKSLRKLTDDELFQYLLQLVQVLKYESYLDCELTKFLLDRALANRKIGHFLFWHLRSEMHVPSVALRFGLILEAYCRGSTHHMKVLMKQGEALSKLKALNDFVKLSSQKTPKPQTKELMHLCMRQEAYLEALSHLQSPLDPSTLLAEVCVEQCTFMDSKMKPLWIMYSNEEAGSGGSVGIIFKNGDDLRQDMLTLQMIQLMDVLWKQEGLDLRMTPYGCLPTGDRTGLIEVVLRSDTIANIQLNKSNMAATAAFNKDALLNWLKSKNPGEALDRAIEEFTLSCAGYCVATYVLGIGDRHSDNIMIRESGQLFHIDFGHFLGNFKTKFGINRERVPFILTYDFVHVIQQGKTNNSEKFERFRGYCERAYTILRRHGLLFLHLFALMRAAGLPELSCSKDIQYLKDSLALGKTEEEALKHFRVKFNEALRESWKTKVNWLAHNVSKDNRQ
Chain of recombinant human PI3Kδ (6-His(p110-p85α)) (P27986 whole entry partner): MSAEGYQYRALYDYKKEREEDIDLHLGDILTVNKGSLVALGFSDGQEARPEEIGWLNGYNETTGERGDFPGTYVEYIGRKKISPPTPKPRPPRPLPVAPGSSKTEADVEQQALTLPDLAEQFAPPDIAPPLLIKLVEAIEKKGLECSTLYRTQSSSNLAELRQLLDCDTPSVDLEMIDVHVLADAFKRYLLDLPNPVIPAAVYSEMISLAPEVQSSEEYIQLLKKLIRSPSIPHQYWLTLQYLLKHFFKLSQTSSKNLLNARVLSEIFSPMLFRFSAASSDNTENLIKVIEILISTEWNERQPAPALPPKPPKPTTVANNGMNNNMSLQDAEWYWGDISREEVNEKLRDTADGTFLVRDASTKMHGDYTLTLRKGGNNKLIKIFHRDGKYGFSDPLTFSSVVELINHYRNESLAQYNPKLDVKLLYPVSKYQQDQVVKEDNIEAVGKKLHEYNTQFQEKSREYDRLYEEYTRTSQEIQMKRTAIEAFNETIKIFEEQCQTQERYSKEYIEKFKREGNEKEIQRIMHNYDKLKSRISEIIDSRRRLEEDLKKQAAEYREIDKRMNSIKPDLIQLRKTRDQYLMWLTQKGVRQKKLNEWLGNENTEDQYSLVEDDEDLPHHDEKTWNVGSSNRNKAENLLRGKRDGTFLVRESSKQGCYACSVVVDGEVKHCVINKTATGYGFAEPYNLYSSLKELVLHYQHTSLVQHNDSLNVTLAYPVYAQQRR
Chain of recombinant human PI3Kγ ((aa144-1102)-6His) (P48736 144-1102): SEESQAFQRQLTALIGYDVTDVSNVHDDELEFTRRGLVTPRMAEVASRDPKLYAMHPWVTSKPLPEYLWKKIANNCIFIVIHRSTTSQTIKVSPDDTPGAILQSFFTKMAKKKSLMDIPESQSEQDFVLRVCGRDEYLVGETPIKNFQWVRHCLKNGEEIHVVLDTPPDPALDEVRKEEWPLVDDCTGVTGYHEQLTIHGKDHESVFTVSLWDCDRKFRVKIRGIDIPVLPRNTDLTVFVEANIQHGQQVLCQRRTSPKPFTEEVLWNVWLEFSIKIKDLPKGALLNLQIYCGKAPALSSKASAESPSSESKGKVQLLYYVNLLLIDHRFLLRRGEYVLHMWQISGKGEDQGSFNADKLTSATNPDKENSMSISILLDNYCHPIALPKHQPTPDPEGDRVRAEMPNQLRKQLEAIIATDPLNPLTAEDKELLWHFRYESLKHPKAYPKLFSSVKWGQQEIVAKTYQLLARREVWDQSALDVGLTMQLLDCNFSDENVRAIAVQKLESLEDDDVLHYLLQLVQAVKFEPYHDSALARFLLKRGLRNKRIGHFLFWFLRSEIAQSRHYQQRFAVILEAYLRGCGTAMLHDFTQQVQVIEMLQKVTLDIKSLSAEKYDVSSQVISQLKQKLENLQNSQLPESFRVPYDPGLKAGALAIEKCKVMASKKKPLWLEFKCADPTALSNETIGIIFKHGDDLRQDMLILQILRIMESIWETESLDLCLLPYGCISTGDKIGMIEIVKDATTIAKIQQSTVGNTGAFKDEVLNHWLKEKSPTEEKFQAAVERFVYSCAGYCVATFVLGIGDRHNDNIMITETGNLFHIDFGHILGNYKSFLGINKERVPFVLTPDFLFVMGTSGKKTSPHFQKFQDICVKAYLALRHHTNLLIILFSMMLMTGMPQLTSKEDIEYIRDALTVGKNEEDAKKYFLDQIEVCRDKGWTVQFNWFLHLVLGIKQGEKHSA
Chain of recombinant human PI3Kα (6-His(p110-p85α)) (P42336 whole entry): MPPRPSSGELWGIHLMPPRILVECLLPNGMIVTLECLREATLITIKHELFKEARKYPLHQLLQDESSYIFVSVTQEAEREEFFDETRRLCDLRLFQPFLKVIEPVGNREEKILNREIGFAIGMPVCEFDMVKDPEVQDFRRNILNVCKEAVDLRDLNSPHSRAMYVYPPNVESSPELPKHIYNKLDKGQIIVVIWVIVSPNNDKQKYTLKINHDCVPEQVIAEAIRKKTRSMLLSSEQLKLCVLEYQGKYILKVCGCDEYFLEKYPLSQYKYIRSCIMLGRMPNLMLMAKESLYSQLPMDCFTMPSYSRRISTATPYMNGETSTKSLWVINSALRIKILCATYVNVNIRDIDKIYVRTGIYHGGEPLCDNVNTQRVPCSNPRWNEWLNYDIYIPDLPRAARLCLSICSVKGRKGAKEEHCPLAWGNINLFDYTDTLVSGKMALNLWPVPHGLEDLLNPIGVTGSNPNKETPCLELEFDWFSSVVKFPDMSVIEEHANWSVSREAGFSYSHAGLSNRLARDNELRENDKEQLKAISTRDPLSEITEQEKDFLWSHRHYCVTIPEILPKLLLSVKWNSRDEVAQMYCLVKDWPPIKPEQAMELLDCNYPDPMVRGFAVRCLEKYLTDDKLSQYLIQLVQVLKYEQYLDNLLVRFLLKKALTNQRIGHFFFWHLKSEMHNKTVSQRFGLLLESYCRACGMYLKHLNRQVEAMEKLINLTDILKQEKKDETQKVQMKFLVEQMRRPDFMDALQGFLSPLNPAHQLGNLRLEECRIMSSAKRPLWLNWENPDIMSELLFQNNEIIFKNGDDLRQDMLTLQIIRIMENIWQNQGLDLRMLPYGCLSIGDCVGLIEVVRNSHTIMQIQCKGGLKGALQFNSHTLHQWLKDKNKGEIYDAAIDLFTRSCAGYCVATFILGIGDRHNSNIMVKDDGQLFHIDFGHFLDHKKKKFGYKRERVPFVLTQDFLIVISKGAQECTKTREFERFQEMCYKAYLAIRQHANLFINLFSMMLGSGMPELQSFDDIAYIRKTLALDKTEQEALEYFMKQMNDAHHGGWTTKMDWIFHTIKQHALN
Chain of recombinant human PI3Kα (6-His(p110-p85α)) (P27986 whole entry partner): as the sequence (P27986 whole entry partner) above
Chain of recombinant human PI3Kβ (6-His(p110-p85α)) (P42338 whole entry): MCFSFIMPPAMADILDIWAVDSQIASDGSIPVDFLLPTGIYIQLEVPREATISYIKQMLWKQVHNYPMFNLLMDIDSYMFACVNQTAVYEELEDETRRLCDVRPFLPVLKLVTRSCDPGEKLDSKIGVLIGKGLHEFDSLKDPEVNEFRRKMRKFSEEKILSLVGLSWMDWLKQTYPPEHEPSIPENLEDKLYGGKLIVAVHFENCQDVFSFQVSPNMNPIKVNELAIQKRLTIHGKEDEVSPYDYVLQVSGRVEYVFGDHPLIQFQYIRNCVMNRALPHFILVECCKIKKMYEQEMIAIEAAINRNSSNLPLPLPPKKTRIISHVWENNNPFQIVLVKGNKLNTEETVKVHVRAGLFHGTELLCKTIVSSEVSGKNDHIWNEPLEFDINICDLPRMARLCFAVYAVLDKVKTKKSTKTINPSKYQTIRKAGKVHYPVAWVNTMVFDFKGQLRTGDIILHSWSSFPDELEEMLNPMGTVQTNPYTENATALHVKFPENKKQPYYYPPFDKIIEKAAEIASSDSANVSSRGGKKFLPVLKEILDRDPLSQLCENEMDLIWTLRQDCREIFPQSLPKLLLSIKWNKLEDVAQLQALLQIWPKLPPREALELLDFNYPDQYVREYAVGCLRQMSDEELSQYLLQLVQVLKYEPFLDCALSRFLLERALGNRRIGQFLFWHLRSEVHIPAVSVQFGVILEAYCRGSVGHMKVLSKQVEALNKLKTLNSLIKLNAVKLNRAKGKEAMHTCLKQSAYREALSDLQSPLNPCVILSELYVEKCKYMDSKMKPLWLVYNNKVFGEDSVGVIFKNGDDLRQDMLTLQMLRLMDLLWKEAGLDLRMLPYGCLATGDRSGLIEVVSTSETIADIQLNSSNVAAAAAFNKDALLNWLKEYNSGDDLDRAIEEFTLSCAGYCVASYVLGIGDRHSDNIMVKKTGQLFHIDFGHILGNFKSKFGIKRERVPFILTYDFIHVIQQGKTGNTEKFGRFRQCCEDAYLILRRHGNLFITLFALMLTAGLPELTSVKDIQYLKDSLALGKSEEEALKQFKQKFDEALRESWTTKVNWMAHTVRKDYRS
Chain of recombinant human PI3Kβ (6-His(p110-p85α)) (P27986 whole entry partner): as the sequence (P27986 whole entry partner) above

SMILES | IC50 [1] [nM] | IC50 [2] [nM] | IC50 [3] [nM] | IC50 [4] [nM]
CNS(=O)(=O)c1cc(-c2sc(Nc3cccc(N4CC(C)(C)NCC4=O)n3)nc2C)cc2c1C(=O)N([C@@H](C)C1CC1)C2 [Example 48, 2-[(1S)-1-Cyclopropylethyl]-6-(2-{[6-(5,5-dimethyl-2-oxopiperazin-1-yl)pyridin-2-yl]amino}-4-methyl-1,3-thiazol-5-yl)-N-methyl-3-oxo-2,3-dihydro-1H-isoindole-4-sulfonamide] | 19 | 1.5 | 199 | 0.7
CNS(=O)(=O)c1cc(-c2sc(Nc3cccc(N4CCOCC4=O)n3)nc2C)cc2c1C(=O)N([C@@H](C)C(C)(C)C)C2 [Example 39, 2-[(2S)-3,3-Dimethylbutan-2-yl]-N-methyl-6-(4-methyl-2-{[6-(3-oxomorpholin-4-yl)pyridin-2-yl]amino}-1,3-thiazol-5-yl)-3-oxo-2,3-dihydro-1H-isoindole-4-sulfonamide] | 485 | 1.4 | 10400 | 8.9
Cc1nc(Nc2cccc(N3CCNCC3=O)n2)sc1-c1cc2c(c(S(=O)(=O)NC(C)C)c1)C(=O)N([C@@H](C)C1CC1)C2 [Example 51, 2-[(1S)-1-Cyclopropylethyl]-6-(4-methyl-2-{[6-(2-oxopiperazin-1-yl)pyridin-2-yl]amino}-1,3-thiazol-5-yl)-3-oxo-N-(propan-2-yl)-2,3-dihydro-1H-isoindole-4-sulfonamide] | 134 | 1.5 | 415 | 1.1
CNS(=O)(=O)c1cc(-c2sc(Nc3cccc(N4CCNCC4=O)n3)nc2C)cc2c1C(=O)N([C@@H](C)C1CC1)C2 [Example 41, 2-[(1S)-1-Cyclopropylethyl]-N-methyl-6-(4-methyl-2-{[6-(2-oxopiperazin-1-yl)pyridin-2-yl]amino}-1,3-thiazol-5-yl)-3-oxo-2,3-dihydro-1H-isoindole-4-sulfonamide] | 72 | 1.3 | 298 | 0.9
Cc1nc(Nc2cccc(N3CCOCC3=O)n2)sc1-c1cc2c(c(S(=O)(=O)NC(C)C)c1)C(=O)N([C@@H](C)C(F)(F)F)C2 [Example 28, 6-(4-Methyl-2-{[6-(3-oxomorpholin-4-yl)pyridin-2-yl]amino}-1,3-thiazol-5-yl)-3-oxo-N-(propan-2-yl)-2-[(2S)-1,1,1-trifluoropropan-2-yl]-2,3-dihydro-1H-isoindole-4-sulfonamide] | 318 | 2.6 | 798 | 1.2
CNS(=O)(=O)c1cc(-c2sc(Nc3cccc(N4CCCOC4=O)n3)nc2C)cc2c1C(=O)N([C@@H](C)C1CC1)C2 [Example 21, 2-[(1S)-1-Cyclopropylethyl]-N-methyl-6-(4-methyl-2-{[6-(2-oxo-1,3-oxazinan-3-yl)pyridin-2-yl]amino}-1,3-thiazol-5-yl)-3-oxo-2,3-dihydro-1H-isoindole-4-sulfonamide] | 19 | 1.1 | 103 | 0.6
Cc1nc(Nc2cccc(N3CCNC3=O)n2)sc1-c1cc2c(c(S(C)(=O)=O)c1)C(=O)N([C@@H](C)C1CC1)C2 [Example 6, 2-[(1S)-1-Cyclopropylethyl]-5-(4-methyl-2-{[6-(2-oxoimidazolidin-1-yl)pyridin-2-yl]amino}-1,3-thiazol-5-yl)-7-(methylsulfonyl)-2,3-dihydro-1H-isoindol-1-one] | 23 | 0.8 | 219 | 0.7
Cc1nc(Nc2cccc(N3CCCC3=O)n2)sc1-c1cc2c(c(S(C)(=O)=O)c1)C(=O)N([C@@H](C)C1CC1)C2 [Example 1, 2-[(1S)-1-Cyclopropylethyl]-5-(4-methyl-2-{[6-(2-oxopyrrolidin-1-yl)pyridin-2-yl]amino}-1,3-thiazol-5-yl)-7-(methylsulfonyl)-2,3-dihydro-1H-isoindol-1-one] | 55 | 0.9 | 1360 | 0.7
CCNS(=O)(=O)c1cc(-c2sc(Nc3cccc(N4CCNCC4=O)n3)nc2C)cc2c1C(=O)N([C@@H](C)C1CC1)C2 [Example 50, 2-[(1S)-1-Cyclopropylethyl]-N-ethyl-6-(4-methyl-2-{[6-(2-oxopiperazin-1-yl)pyridin-2-yl]amino}-1,3-thiazol-5-yl)-3-oxo-2,3-dihydro-1H-isoindole-4-sulfonamide] | 54 | 1.4 | 271 | 0.8
CNS(=O)(=O)c1cc(-c2sc(Nc3cccc(N(C)C(C)=O)n3)nc2C)cc2c1C(=O)N([C@@H](C)C1CC1)C2 [Example 13, N-{6-[(5-{2-[(1S)-1-Cyclopropylethyl]-7-(methylsulfamoyl)-1-oxo-2,3-dihydro-1H-isoindol-5-yl}-4-methyl-1,3-thiazol-2-yl)amino]pyridin-2-yl}-N-methylacetamide] | 68 | 0.8 | 1570 | 1.1
CCNS(=O)(=O)c1cc(-c2sc(Nc3cccc(N4CCOCC4=O)n3)nc2C)cc2c1C(=O)N([C@@H](C)C(F)(F)F)C2 [Example 27, N-Ethyl-6-(4-methyl-2-{[6-(3-oxomorpholin-4-yl)pyridin-2-yl]amino}-1,3-thiazol-5-yl)-3-oxo-2-[(2S)-1,1,1-trifluoropropan-2-yl]-2,3-dihydro-1H-isoindole-4-sulfonamide] | 65 | 0.9 | 178 | 0.7
CNS(=O)(=O)c1cc(-c2sc(Nc3cccc(N4CCCOC4=O)n3)nc2C)cc2c1C(=O)N(C(C)(C)C)C2 [Example 38, 2-tert-Butyl-N-methyl-6-(4-methyl-2-{[6-(2-oxo-1,3-oxazinan-3-yl)pyridin-2-yl]amino}-1,3-thiazol-5-yl)-3-oxo-2,3-dihydro-1H-isoindole-4-sulfonamide] | 84 | 0.8 | 65 | 1.8
Cc1nc(Nc2cccc(N3CCNCC3=O)n2)sc1-c1cc2c(c(S(C)(=O)=O)c1)C(=O)N([C@@H](C)C1CC1)C2 [Example 40, 2-[(1S)-1-Cyclopropylethyl]-5-(4-methyl-2-{[6-(2-oxopiperazin-1-yl)pyridin-2-yl]amino}-1,3-thiazol-5-yl)-7-(methylsulfonyl)-2,3-dihydro-1H-isoindol-1-one] | 104 | 1.6 | 729 | 1.7
CNS(=O)(=O)c1cc(-c2sc(Nc3cccc(N(C)C(=O)[C@@H](C)OC)n3)nc2C)cc2c1C(=O)N([C@@H](C)C1CC1)C2 [Example 15, (2R)—N-{6-[(5-{2-[(1S)-1-Cyclopropylethyl]-7-(methylsulfamoyl)-1-oxo-2,3-dihydro-1H-isoindol-5-yl}-4-methyl-1,3-thiazol-2-yl)amino]pyridin-2-yl}-2-methoxy-N-methylpropanamide] | 89 | 1 | 1160 | 1.2
CNS(=O)(=O)c1cc(-c2sc(Nc3cccc(N4CCN[C@H](C)C4=O)n3)nc2C)cc2c1C(=O)N([C@@H](C)C1CC1)C2 [Example 43, 2-[(1S)-1-Cyclopropylethyl]-N-methyl-6-[4-methyl-2-({6-[(3R)-3-methyl-2-oxopiperazin-1-yl]pyridin-2-yl}amino)-1,3-thiazol-5-yl]-3-oxo-2,3-dihydro-1H-isoindole-4-sulfonamide] | 40 | 1 | 284 | 1
CNS(=O)(=O)c1cc(-c2sc(Nc3cccc(N4CC[C@@H](O)C4=O)n3)nc2C)cc2c1C(=O)N([C@@H](C)C1CC1)C2 [Example 54, 2-[(1S)-1-Cyclopropylethyl]-6-[2-({6-[(3R)-3-hydroxy-2-oxopyrrolidin-1-yl]pyridin-2-yl}amino)-4-methyl-1,3-thiazol-5-yl]-N-methyl-3-oxo-2,3-dihydro-1H-isoindole-4-sulfonamide] | 14 | 0.9 | 325 | 0.5
